Values quoted from earlier work in patent US6902746B2, “Oral pharmaceutical compositions containing non-steroidal anti-inflammatory drugs and method for preparing the same” (Yung Shin Pharmaceutical Industrial Co., Ltd., priority 2002, dated 2005).
Blank lines part the entries; values can stand above or below the compound they belong to.

Assays:
[1] = system: M.K. and δ opioid receptors
[2] = animal studies; fraction of the effect of ketorolac tromethamine
platelet aggregation = settings: in vitro; fraction of the activity of ketorolac tromethamine
[3] = animal studies; fraction of the effect of ketorolac tromethamine; remark: listed apart in the source
[4] = in vivo

binding to opioid receptors [1]: does not bind
Compound: O=C(c1ccccc1)c1ccc2n1CCC2C(=O)O (stereo not shown) [ketorolac]

Compound: O=C(c1ccc(O)cc1)c1ccc2n1CCC2C(=O)O (stereo not shown) [p-hydroxyketorolac]
analgesic effect relative to ketorolac tromethamine [2]: 1/100 | anti-platelet aggregation activity relative to ketorolac tromethamine (platelet aggregation): 1/25 | anti-inflammatory effect relative to ketorolac tromethamine [3]: less than ⅕

plasma half-lives ([4]; human): markedly prolonged | total clearance ([4]; human): decreased | administered drug eliminated in the urine [4]: about 75% | administered drug, in its original form, found in the feces [4]: About 6% | bound to plasma proteins [4]: about 99% | mean elimination half-live [4]: 5.3 h | mean volume of distribution at steady state [4]: 0.11 L/kg | mean volume of distribution during the elimination phase [4]: 0.17 to 0.25 L/kg | absorption in the presence of antacids ([4]; po): not affected
Compound: (±)-5-benzoyl-2,3-dihydro-1H-pyrrolizine-1-carboxylic acid 2-amino-2-(hydroxymethyl)-1,3-propanediol [Ketorolac tromethamine]
